{"source": "patent US9433607B2", "about": "“Composition for prevention or treatment of cancer comprising N-methylenenaphtho[2,1-b]furan-2-carbohydrazide derivatives as an active ingredient” (KOREA RESEARCH INSTITUTE OF BIOSCIENCE AND BIOTECHNOLOGY, priority 2012, dated 2016)", "key": {"[1]": {"system": "SNU-484", "assay": "Anti-proliferative MTT assay, SNU-484", "type": "cell-based", "conditions": "96 h, SNU-484, Stomach, 4 days", "procedure": "(§1) Various cancer cell lines (rectal cancer, prostate cancer, breast cancer, lung cancer, stomach cancer, liver cancer, leukemia, brain cancer, and glioma cell lines) were cultured in microtiter plate (1-3×10^3 cells/well), to which ethyl(2-methyl-3{(E)-[(naphtho[2,1-b]furan-2-ylcarbonyl)hydrazono]methyl}-1H-indole-1-yl)acetate was treated. The culture continued for 4 days. Cytotoxicity was investigated by MTT assay by the same manner as described in Example <1-2>. IC50 was calculated by long-dose response curve. The data presents the mean value obtained from the assay performed in triplicate."}, "[2]": {"system": "PC-3", "assay": "Anti-proliferative MTT assay, PC-3", "type": "cell-based", "conditions": "Homo sapiens, 96 h, PC-3, Prostate, 4 days", "procedure": "as §1"}, "[3]": {"system": "caspase-3 and PARP", "assay": "Immunoblotting of apoptosis related proteins", "type": "cell-based", "conditions": "HeLa cells", "procedure": "Particularly, HeLa cells were treated with DMSO or ethyl(2-methyl-3{(E)-[(naphtho[2,1-b]furan-2-ylcarbonyl)hydrazono]methyl}-1H-indole-1-yl)acetate for 24 or 48 hours. Then, immunoblotting was performed to investigate the expressions of caspase-3 and PARP, the apoptosis related proteins. PARP (poly(ADP-ribose)polymerase) is one of the downstream cleavage proteins derived from caspase3. Immunoblotting was performed using caspase-3, PARP, and GAPDH specific antibodies."}, "[4]": {"system": "MCF7", "assay": "Cytotoxicity MTT assay, MCF7", "type": "cell-based", "conditions": "Homo sapiens, 96 h, 4 days", "procedure": "(§2) Particularly, K562, MCF7 (Bio-Evaluation Center, Korea Research Institute of Bioscience and Biotechnology, Korea), and the multi-drug resistant cell lines thereof, K562/ADR and MCF7/ADR (Bio-Evaluation Center, Korea Research Institute of Bioscience and Biotechnology, Korea) were cultured in microtiter plate (1-3×10^3 cells/well). Then, the cells were treated with ethyl(2-methyl-3{(E)-[(naphtho[2,1-b]furan-2-ylcarbonyl)hydrazono]methyl}-1H-indole-1-yl)acetate, doxorubicin, or taxol, followed by culture for 4 days. Cytotoxicity was investigated by MTT assay by the same manner as described in Example <1-2>. IC50 was calculated by long-dose response curve. The data presents the mean value obtained from the assay performed in triplicate (Table 3)."}, "[5]": {"system": "NCl-H460", "assay": "Anti-proliferative MTT assay, NCl-H460", "type": "cell-based", "conditions": "96 h, NCl-H460, Lung, 4 days", "procedure": "as §1"}, "[6]": {"system": "purified tubulin", "assay": "In vitro tubulin polymerization, degree of turbidity", "type": "biochemical", "conditions": "5 μM, purified tubulin and GTP, 340 nm", "procedure": "To measure the polymerization of tubulin in vitro, the buffer containing the purified tubulin and GTP was treated with ethyl(2-methyl-3{(E)-[(naphtho[2,1-b]furan-2-ylcarbonyl)hydrazono]methyl}-1H-indole-1-yl)acetate at the concentration of 5 μM. DMSO, and the equivalent Taxol and vinblastine were used as the controls. The polymerization of tubulin into microtubules was determined if the degree of turbidity was 340 nm."}, "[7]": {"system": "Hep3B", "assay": "Anti-proliferative MTT assay, Hep3B", "type": "cell-based", "conditions": "Homo sapiens, 96 h, Liver, 4 days", "procedure": "as §1"}, "[8]": {"system": "SNB-75", "assay": "Anti-proliferative MTT assay, SNB-75", "type": "cell-based", "conditions": "Homo sapiens, 96 h, SNB-75, Brain, 4 days", "procedure": "as §1"}, "[9]": {"system": "K562", "assay": "Cytotoxicity MTT assay, K562", "type": "cell-based", "conditions": "Homo sapiens, 96 h, 4 days", "procedure": "as §2"}, "[10]": {"system": "MDA-MB-231", "assay": "Anti-proliferative MTT assay, MDA-MB-231", "type": "cell-based", "conditions": "Homo sapiens, 96 h, MDA-MB-231, Breast, 4 days", "procedure": "as §1"}, "[11]": {"system": "Cdc25C, Cyclin B1, and Plk1 (Polo-like kinase 1)", "assay": "Immunoblotting of proteins regulating cell division", "type": "cell-based", "conditions": "HeLa cells, 17 hours", "text": "The effect of ethyl(2-methyl-3{(E)-[(naphtho[2,1-b]furan-2-ylcarbonyl)hydrazono]methyl}-1H-indole-1-yl)acetate on Cdc25C, Cyclin B1, and Plk1 (Polo-like kinase 1), the proteins regulating cell division, was investigated. When Cdc25C is activated in the course of cell division, Cdc25C is hyperphosphorylated so that its movement on SDS-PAGE is slowed down. Based on that principal, Cdc25C activation was investigated. Referring that the expressions of Cyclin B1 and Plk1 are differently regulated in each stage of cell cycle, the expression of each protein was measured. The levels of Cyclin B1 and Plk1 were the lowest in G1 phase.\nHeLa cells were treated with DMSO, nocodazole (NOC), or ethyl(2-methyl-3{(E)-[(naphtho[2,1-b]furan-2-ylcarbonyl)hydrazono]methyl}-1H-indole-1-yl)acetate for 17 hours. The cells were harvested, followed by immunoblotting using cyclin B1, Cdc25C, Plk1, and GAPDH specific antibodies. GAPDH was used as a loading control."}, "[12]": {"system": "HeLa cells", "assay": "Immunofluorescence of intracellular microtubules and chromosomes", "type": "cell-based", "procedure": "To investigate the effect of ethyl(2-methyl-3{(E)-[(naphtho[2,1-b]furan-2-ylcarbonyl)hydrazono]methyl}-1H-indole-1-yl)acetate on intracellular microtubules, HeLa cells were treated with DMSO, Taxol (100 μM), nocodazole (200 ng/ml), or ethyl(2-methyl-3{(E)-[(naphtho[2,1-b]furan-2-ylcarbonyl)hydrazono]methyl}-1H-indole-1-yl)acetate (5 μM) for 17 hours. After fixing the cells, the cells were immuno-stained with Alexa Fluor 488-conjugated anti-tubulin antibody and Hoechst 33342 to confirm α-tubulin and chromosomes."}, "[13]": {"system": "HCT116", "assay": "Anti-proliferative MTT assay, HCT116", "type": "cell-based", "conditions": "Homo sapiens, HCT-116, 96 h, HCT116, Large intestine, 4 days", "procedure": "as §1"}, "[14]": {"system": "MCF7/ADR", "assay": "Cytotoxicity MTT assay, multi-drug resistant MCF7/ADR", "type": "cell-based", "procedure": "as §2\nThe resistance factor of the multi-drug resistant cell line indicates the ratio of IC50 of the multi-drug resistant cell line to IC50 of the parent cell line showing no resistance, which was presented as a number in the bracket."}, "[15]": {"system": "Various cancer cell lines", "assay": "Anti-proliferative MTT assay, various cancer cell lines (summary)", "type": "cell-based", "conditions": "96 h, range over the cell lines, 4 days, read-out: IC50 across cancer cell lines", "procedure": "as §1"}, "[16]": {"system": "HL60", "assay": "Anti-proliferative MTT assay, HL60", "type": "cell-based", "conditions": "Homo sapiens, HL-60, 96 h, HL60, Blood, 4 days", "procedure": "as §1"}, "[17]": {"system": "A549", "assay": "Anti-proliferative MTT assay, A549", "type": "cell-based", "conditions": "Homo sapiens, 96 h, A549, Lung, 4 days", "procedure": "as §1"}, "[18]": {"system": "HT-29", "assay": "Anti-proliferative MTT assay, HT-29", "type": "cell-based", "conditions": "Homo sapiens, 96 h, HT-29, Large intestine, 4 days", "procedure": "as §1"}, "[19]": {"system": "HepG2", "assay": "Anti-proliferative MTT assay, HepG2", "type": "cell-based", "conditions": "Homo sapiens, 96 h, HepG2, Liver, 4 days", "procedure": "as §1"}}}
{"compound": "CCOC(=O)Cn1c(C)c(/C=N/NC(=O)c2cc3c(ccc4ccccc43)o2)c2ccccc21", "note": "[STK899704]", "values": [{"measurement": "IC50", "setting": "[1]", "value": 0.221, "unit": "µM"}, {"measurement": "IC50", "setting": "[2]", "value": 0.65, "unit": "µM"}, {"measurement": "PARP cleavage", "setting": "[3]; 48 hours", "value": "significantly increased"}, {"measurement": "caspase-3 cleavage", "setting": "[3]; 48 hours, 0.5 μM", "value": "significantly increased"}, {"measurement": "caspase-3 cleavage", "setting": "[3]; 48 hours, 1 and 5 μM", "value": "more significantly increased"}, {"measurement": "caspase-3 cleavage", "setting": "[3]; within 24 hours", "value": "not observed"}, {"measurement": "IC50", "setting": "[4]", "value": 1060, "unit": "µM"}, {"measurement": "IC50", "setting": "[5]", "value": 0.806, "unit": "µM"}, {"measurement": "degree of turbidity (tubulin polymerization) compared with Taxol", "setting": "[6]", "value": "the degree of turbidity was lower"}, {"measurement": "IC50", "setting": "[7]", "value": 0.683, "unit": "µM"}, {"measurement": "IC50", "setting": "[8]", "value": 0.588, "unit": "µM"}, {"measurement": "IC50", "setting": "[9]", "value": 0.45, "unit": "µM"}, {"measurement": "IC50", "setting": "[10]", "value": 0.543, "unit": "µM"}, {"measurement": "effect on Cdc25C, cyclin B1 and Plk1 (immunoblotting)", "setting": "[11]", "value": "Cdc25C was phosphorylated and cyclin B1 and Plk1 were accumulated"}, {"measurement": "effect on microtubules (immunofluorescence over concentrations)", "setting": "[12]; 1 μM", "value": "all the microtubules were destroyed"}, {"measurement": "effect on microtubules and chromosomes (immunostaining)", "setting": "[12]; 17 hours, Taxol 100 μM, nocodazole 200 ng/ml, compound 5 μM", "value": "chromosomes were not fully condensed and microtubules were destroyed"}, {"measurement": "IC50", "setting": "[13]", "value": 0.717, "unit": "µM"}, {"measurement": "IC50", "setting": "[14]; Homo sapiens, NCI/ADR-RES, 96 h, MCF7/ADR, MTT, 4 days", "value": 225, "unit": "µM"}, {"measurement": "resistance factor (number in the bracket)", "setting": "[14]; ratio of IC50 of MCF7/ADR to IC50 of parent MCF7", "value": 0.2}, {"measurement": "IC50", "setting": "[15]", "value": "0.22 to 1.06", "unit": "µM"}, {"measurement": "IC50", "setting": "[16]", "value": 0.563, "unit": "µM"}, {"measurement": "IC50", "setting": "[17]", "value": 0.843, "unit": "µM"}, {"measurement": "IC50", "setting": "[18]", "value": 0.701, "unit": "µM"}, {"measurement": "IC50", "setting": "[19]", "value": 0.82, "unit": "µM"}]}
